Test results reported in patent US10829517B2, “Method for treating or/and preventing calcium deficiency-related diseases” (National Chung Hsing University, priority 2017, dated 2020).
Ends that are not written are not given here.

Key:
Caco-2 cells = test: Calcium uptake in Fluo-3-AM loaded Caco-2 cells (fluorescence intensity); format: cell-based, human
Method: The Caco-2 cell monolayer was cultured in a 10 cm2 culture dish containing DEME medium, and the cells were separated by TrypLE (Invitrogen, Carlsbad, Calif.) and washed several times with a phosphate-free KRH (Krebs Ringer Heps) solution. 5 μL of 1 mM Fluo-3-AM dye and 20% (w/v) thermally reversible hydrogel (Pluronic F-127, RF127) solution were added at 37° C. for about 30 minutes to obtain a Caco-2 cell suspension.
The Caco-2 cell suspension containing Fluo-3-AM dye was thoroughly rinsed in phosphate-free KRH solution and aliquoted, each aliquot containing 5×10^7 cells. After each aliquot was pelletized, the cells were resuspended in 240 μL of the phosphate-free KRH solution, and then transferred to a 96-well plate for use.

calcium ion channel V6 = biological target: T1, calcium ion channel V6 (Homo sapiens, UniProt Q9H1D0); test: Caco-2 calcium uptake with calcium ion channel V6 inhibitor ruthenium red; format: cell-based; details: 6 mM calcium ions, 400 μM peptide of SEQ ID No. 1
T1 construct: endogenous in cells; host or cells: Caco-2
T1 sequence (Q9H1D0 1-765): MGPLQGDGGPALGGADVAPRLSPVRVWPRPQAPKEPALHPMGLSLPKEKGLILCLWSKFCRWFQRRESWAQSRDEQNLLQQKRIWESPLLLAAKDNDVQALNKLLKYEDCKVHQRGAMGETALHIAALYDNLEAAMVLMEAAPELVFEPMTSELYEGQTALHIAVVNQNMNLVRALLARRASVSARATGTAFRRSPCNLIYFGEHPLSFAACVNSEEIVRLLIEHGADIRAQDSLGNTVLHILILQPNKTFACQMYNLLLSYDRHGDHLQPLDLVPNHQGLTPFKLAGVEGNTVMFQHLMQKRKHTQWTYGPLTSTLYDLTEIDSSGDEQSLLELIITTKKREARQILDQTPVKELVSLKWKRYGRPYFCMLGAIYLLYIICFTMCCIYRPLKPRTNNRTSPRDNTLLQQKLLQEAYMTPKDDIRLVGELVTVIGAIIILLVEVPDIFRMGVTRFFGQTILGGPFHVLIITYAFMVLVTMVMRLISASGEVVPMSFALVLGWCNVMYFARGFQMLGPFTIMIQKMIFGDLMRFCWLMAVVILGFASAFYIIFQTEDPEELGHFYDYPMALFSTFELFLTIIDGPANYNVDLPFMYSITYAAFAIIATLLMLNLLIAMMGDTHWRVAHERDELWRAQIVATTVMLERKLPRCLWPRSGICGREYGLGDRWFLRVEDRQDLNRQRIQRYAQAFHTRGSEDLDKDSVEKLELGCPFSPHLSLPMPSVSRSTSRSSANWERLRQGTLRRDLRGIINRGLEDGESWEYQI
Method: The steps were the same as those described in Example 5, except that the calcium ion channel V6 inhibitor: ruthenium red (RUR) was administered at the 154th second.

[1] = 400 μM peptide, 6 mM calcium ions, compared with 400 μM CPP group and no-peptide group

TEVPAINTIASAEPTVH [SEQ ID No. 1]
calcium ion concentration (peak [Ca2+]) in Caco-2 cells (Caco-2 cells; [1]): significantly increased
fluorescence intensity in Caco-2 cells (Caco-2 cells; [1]): significantly higher
fluorescence intensity in Caco-2 cells (Caco-2 cells; at the 442th second, 0 mM calcium ions (first group), 400 μM peptide): 7,059,148
fluorescence intensity in Caco-2 cells (Caco-2 cells; at the 442th second, 0.3 mM calcium ions (second group), 400 μM peptide): 9,780,517
fluorescence intensity in Caco-2 cells (Caco-2 cells; at the 442th second, 0.5 mM calcium ions (third group), 400 μM peptide): 9,720,348
fluorescence intensity in Caco-2 cells (Caco-2 cells; at the 442th second, 1.5 mM calcium ions (fourth group), 400 μM peptide): 10,604,175
fluorescence intensity in Caco-2 cells (Caco-2 cells; at the 442th second, 3 mM calcium ions (fifth group), 400 μM peptide): 10,986,171
fluorescence intensity in Caco-2 cells (Caco-2 cells; at the 442th second, 6 mM calcium ions (sixth group), 400 μM peptide): 10,912,015

N.N.N.N.N.N.N.N.N.N.N.N.N.N.[Cl-].[Cl-].[Cl-].[Cl-].[Cl-].[Cl-].[O-2].[O-2].[Ru+3].[Ru+3].[Ru+4] [ruthenium red]
percentage decrease of peak calcium ion (peak [Ca2+]) compared to the first group (calcium ion channel V6; ruthenium red 10 μM (second group) vs 0 μM): 41.9%
percentage decrease of peak calcium ion (peak [Ca2+]) compared to the first group (calcium ion channel V6; ruthenium red 20 μM (third group) vs 0 μM): 57.3%
percentage decrease of peak calcium ion (peak [Ca2+]) compared to the first group (calcium ion channel V6; ruthenium red 50 μM (fourth group) vs 0 μM): 72.0%
percentage decrease of peak calcium ion (peak [Ca2+]) compared to the first group (calcium ion channel V6; ruthenium red 100 μM (fifth group) vs 0 μM): 86.7%

SEQ ID No. 2: peptide of SEQ ID No. 1 with the C-terminal 5 amino acids removed (TEVPAINTIASA)
calcium-absorption promotion ability (Caco-2 cells; Example 17, FIG. 36, Caco-2 cells): have the ability to promote calcium absorption
